Results taken from patent US11466326B2, “Methods and kit for diagnosing and treating colorectal cancer based on AvrA and Wnt1” (The Board of Trustees of the University of Illinois, priority 2018, dated 2022).
Peptide text beside a SMILES is read from it. * marks the point of attachment. Cbz = O=C(OCc1ccccc1)*

Legend:
[1] = tested on: Wnt1 protein; assay: Wnt1 protein level after Salmonella infection in the presence of a proteasome inhibitor; format: cell-based, human; conditions: in the presence of MG132; compared with control cells without treatment
Method: (§1) Western Blot Analysis of Cell Line Proteins. Infected or control cells were rinsed twice in ice-cold HESS and lysed in protein loading buffer (50 mM Tris, pH 6.8, 100 mM dithiothreitol, 2% SDS, 0.1% bromophenol blue, and 10% glycerol). Equal amounts of protein were separated by SDS-polyacrylamide gel electrophoresis, transferred to nitrocellulose membranes, and analyzed by immunoblotting with anti-Wnt1 and anti-β-actin antibodies (Bioworld). The signals were visualized and quantitated using LI-COR Odyssey v3.0 software after probing the membranes with an infrared-conjugated secondary antibody.

[2] = tested on: Wnt1 protein; assay: Wnt1 protein level by immunoblot after LPS treatment of human epithelial cells; format: cell-based; conditions: cells treated with LPS, total cell lysates
Method: as §1

Molecule	Wnt1 protein levels after Salmonella infection [1]	change in Wnt1 expression (decrease as seen with Salmonella) [2]
CC(C)C[C@@H](C=O)NC(=O)[C@H](CC(C)C)NC(=O)[C@H](CC(C)C)NC(=O)OCc1ccccc1 [MG132] (Cbz-Leu-Leu-Leu-aldehyde)	stabilized	
lipopolysaccharide [LPS]		not observed
